{
  "source": "ChEMBL document CHEMBL1145235",
  "about": "“Optimization of pyrrolidinone based HIV protease inhibitors” (Bioorg Med Chem Lett, 2005)",
  "key": {"[1]": {"system": "MT4", "test": "Antiviral inhibitory concentration against human immunodeficiency virus type 1 in MT-4 cell culture", "assay_type": "functional, cell-based"}, "[2]": {"molecular_target": "Human immunodeficiency virus type 1 protease (Human immunodeficiency virus 1, UniProt Q72874)", "test": "Inhibition constant against HIV Protease"}},
  "note": "pIC50, pKi: −log10 of the molar value.",
  "data": [
    {"molecule": "O=C(C[C@@H](Cc1ccc(OCCO)cc1)C(=O)NC1c2ccccc2C[C@H]1O)CN1C(=O)[C@@H](Cc2ccccc2)C[C@@H]1Cc1ccccc1", "note": "(some centres undefined)", "values": [
      {"measurement": "pIC50", "setting": "[1]", "value": 7.03},
      {"measurement": "pKi", "setting": "[2]", "value": 10.70}
    ]},
    {"molecule": "O=C(C[C@@H](Cc1ccccc1)C(=O)NC1c2ccccc2C[C@H]1O)CN1C(=O)[C@@H](Cc2ccccc2)C[C@@H]1Cc1ccc(OCc2ccccc2)cc1", "note": "(some centres undefined)", "values": [
      {"measurement": "pIC50", "setting": "[1]", "value": 6.26},
      {"measurement": "pKi", "setting": "[2]", "value": 9.89}
    ]},
    {"molecule": "O=C(C[C@@H](Cc1ccccc1)C(=O)NC1c2ccccc2C[C@H]1O)CN1C(=O)[C@@H](Cc2ccccc2)C[C@@H]1Cc1ccc(O)cc1", "note": "(some centres undefined)", "values": [
      {"measurement": "pIC50", "setting": "[1]", "value": 6.70}
    ]},
    {"molecule": "O=C(C[C@@H](Cc1ccc(OCCN2CCOCC2)cc1)C(=O)NC1c2ccccc2C[C@H]1O)CN1C(=O)[C@@H](Cc2ccccc2)C[C@@H]1Cc1ccccc1", "note": "(some centres undefined)", "values": [
      {"measurement": "pIC50", "setting": "[1]", "value": 7.08},
      {"measurement": "pKi", "setting": "[2]", "value": 9.85}
    ]},
    {"molecule": "O=C(C[C@@H](Cc1ccc(O)cc1)C(=O)NC1c2ccccc2C[C@H]1O)CN1C(=O)[C@@H](Cc2ccccc2)C[C@@H]1Cc1ccccc1", "note": "(some centres undefined)", "values": [
      {"measurement": "pIC50", "setting": "[1]", "value": 6.49},
      {"measurement": "pKi", "setting": "[2]", "value": 10.22}
    ]},
    {"molecule": "O=C(C[C@@H](Cc1ccc(OCc2ccccc2)cc1)C(=O)NC1c2ccccc2C[C@H]1O)CN1C(=O)[C@@H](Cc2ccccc2)C[C@@H]1Cc1ccccc1", "note": "(some centres undefined)", "values": [
      {"measurement": "pIC50", "setting": "[1]", "value": 6.04},
      {"measurement": "pKi", "setting": "[2]", "value": 9.96}
    ]},
    {"molecule": "COCCOCCOc1ccc(C[C@H](CC(=O)CN2C(=O)[C@@H](Cc3ccccc3)C[C@@H]2Cc2ccccc2)C(=O)NC2c3ccccc3C[C@H]2O)cc1", "note": "(some centres undefined)", "values": [
      {"measurement": "pIC50", "setting": "[1]", "value": 7.03},
      {"measurement": "pKi", "setting": "[2]", "value": 10.70}
    ]},
    {"molecule": "O=C(C[C@@H](Cc1ccc(OCc2ccccn2)cc1)C(=O)NC1c2ccccc2C[C@H]1O)CN1C(=O)[C@@H](Cc2ccccc2)C[C@@H]1Cc1ccccc1", "note": "(some centres undefined)", "values": [
      {"measurement": "pIC50", "setting": "[1]", "value": 6.42},
      {"measurement": "pKi", "setting": "[2]", "value": 10.15}
    ]},
    {"molecule": "O=C(C[C@@H](Cc1ccc(OCC(=O)N2CCOCC2)cc1)C(=O)NC1c2ccccc2C[C@H]1O)CN1C(=O)[C@@H](Cc2ccccc2)C[C@@H]1Cc1ccccc1", "note": "(some centres undefined)", "values": [
      {"measurement": "pIC50", "setting": "[1]", "value": 7.20},
      {"measurement": "pKi", "setting": "[2]", "value": 10.70}
    ]},
    {"molecule": "O=C(C[C@@H](Cc1ccccc1)C(=O)NC1c2ccccc2C[C@H]1O)CN1C(=O)[C@@H](Cc2ccccc2)C[C@@H]1Cc1ccc(OCC(=O)N2CCOCC2)cc1", "note": "(some centres undefined)", "values": [
      {"measurement": "pIC50", "setting": "[1]", "value": 6.70},
      {"measurement": "pKi", "setting": "[2]", "value": 10.00}
    ]},
    {"molecule": "O=C(C[C@@H](Cc1ccccc1)C(=O)NC1c2ccccc2C[C@H]1O)CN1C(=O)[C@@H](Cc2ccccc2)C[C@@H]1Cc1ccc(OCCO)cc1", "note": "(some centres undefined)", "values": [
      {"measurement": "pIC50", "setting": "[1]", "value": 6.32},
      {"measurement": "pKi", "setting": "[2]", "value": 9.52}
    ]},
    {"molecule": "CN1CCN(C(=O)COc2ccc(C[C@H](CC(=O)CN3C(=O)[C@@H](Cc4ccccc4)C[C@@H]3Cc3ccccc3)C(=O)NC3c4ccccc4C[C@H]3O)cc2)CC1", "note": "(some centres undefined)", "values": [
      {"measurement": "pIC50", "setting": "[1]", "value": 6.89},
      {"measurement": "pKi", "setting": "[2]", "value": 10.30}
    ]},
    {"molecule": "NC(=O)COc1ccc(C[C@H](CC(=O)CN2C(=O)[C@@H](Cc3ccccc3)C[C@@H]2Cc2ccccc2)C(=O)NC2c3ccccc3C[C@H]2O)cc1", "note": "(some centres undefined)", "values": [
      {"measurement": "pIC50", "setting": "[1]", "value": 6.44},
      {"measurement": "pKi", "setting": "[2]", "value": 10.15}
    ]},
    {"molecule": "O=C(C[C@@H](Cc1ccccc1)C(=O)NC1c2ccccc2C[C@H]1O)CN1C(=O)[C@@H](Cc2ccccc2)C[C@@H]1Cc1ccccc1", "note": "(some centres undefined)", "values": [
      {"measurement": "pIC50", "setting": "[1]", "value": 6.14},
      {"measurement": "pKi", "setting": "[2]", "value": 10.30}
    ]},
    {"molecule": "O=C(C[C@@H](Cc1ccccc1)C(=O)NC1c2ccccc2C[C@H]1O)CN1C(=O)[C@@H](Cc2ccccc2)C[C@@H]1Cc1ccc(OCCN2CCOCC2)cc1", "note": "(some centres undefined)", "values": [
      {"measurement": "pIC50", "setting": "[1]", "value": 6.02},
      {"measurement": "pKi", "setting": "[2]", "value": 8.89}
    ]}
  ]
}
